The test system of data set [1] is γδ T cells. As to conditions: acid hydrolysed, diluted in media; peripheral blood mononuclear cells; cited from earlier work.
In data set [2] the test system is MCA-OVA tumor cells. As to the kind of experiment: Tumor growth evaluation by caliper, supplemented diets with or without chemotherapy (Example 2). The format is in vivo, C57BL/6 (H-2b) mice. As to the method:
(§1) Mice. […] The animals were distributed into 7 different group diets. There was a control group that received the diet AIN 93 for adult rodents (maintenance). […] Control animals without chemotherapeutic treatment were run in parallel for all tested diets. Body weight was assessed every two days. Blood samples were obtained at day 2, 4 and 10 after the chemo-treatment and at sacrifice (14 or 28 days). An autopsy was performed and tumor mass was assessed.
Cancer Cell Lines. Methylcholanthrene (MCA) induced sarcoma cell line expressing the exogenous antigen ovalbumin (OVA) was grown in DMEM or RPMI 1640 supplemented with 2 mM L-glutamine, 10 mM HEPES, 20 μM 2-mercaptoethanol, 150 U/mL streptomycin, 200 U/mL penicillin, and 10% heat-inactivated FBS. 1×10 ^6 tumor cells were injected in the flank of the mice 6 days prior to the chemotherapy.
Tumor growth evaluation. Growth of tumors was monitored every 2 d by using calipers, and tumor volume was calculated by using the formula length×width×width×0.52 mm^3.

A short description of data set [3]: Body weight, haematological evaluation and flow cytometry of tumor-bearing mice on supplemented diets with chemotherapy (Example 2). As to conditions: for Global lymphocyte population: following chemotherapy. In kind it is in vivo, C57BL/6 (H-2b) mice. As for the experimental part: as §1
Haematological evaluation.
Flow cytometric analysis.

Data set [4] can be described thus: Body weight, haematological evaluation and flow cytometry of tumor-bearing mice after chemotherapy (Example 1). Background: A flow cytometer gives signals particle by particle.
Description: Mice. Inbred eight-week-old C57BL/6 (H-2b) mice were used in the experiments. Mice were inoculated subcutaneously (s.c.) on the left flank with 1×10 ^6 tumor cells, and tumor growth was monitored every 2 days by caliper measurement. 6 days after the tumor inoculation the animals were treated either with oxaliplatin or doxorubicin. Tumor growth was monitored every two days after the chemotherapeutic treatment and they were sacrificed after two weeks of tumor implantation. Some experiments were carried out until 28 days post-chemo to better assess tumor growth.
Body weight was assessed every two days until sacrifice.
Blood samples were obtained at day 2 and 4 after the chemo-treatment, at day 10 and at sacrifice (14 or 28 days). An autopsy was performed and tumoral mass was assessed.
Haematological evaluation. Red blood cell enumeration, hemoglobin and hematocrit were measured at 2, 4, 10, 14 and 28 days.
White blood cell counts and differential leukocyte formulation were examined at the same time points. Blood samples were used in addition to determine immune cell populations.
Flow cytometric analysis. Cell subset analysis of the CD11c^+, CD11b^+Gr-1^+ and CD11b^+Gr-1^−, CD14^+, CD19^+, CD16^+, CD56^+, CD3^+, CD8^+, CD4^+ was performed. The battery of antibodies used permitted the evaluation of: B and T cell subsets NK, NKT cells, macrophages, dendritic cells, granulocytes.
For data set [5], the system named is Methylcholanthrene (MCA) induced sarcoma cell line expressing the exogenous antigen for ovalbumin (OVA). Put plainly: Tumor growth evaluation by caliper after chemotherapy (Example 1). The format is in vivo, C57BL/6 (H-2b) mice. As for the experimental part: Cancer Cell Lines. Methylcholanthrene (MCA) induced sarcoma cell line expressing the exogenous antigen for ovalbumin (OVA) were grown in DMEM or RPMI 1640 supplemented with 2 mM L-glutamine, 10 mM HEPES, 20 μM 2-mercaptoethanol, 150 U/mL streptomycin, 200 U/mL penicillin, and 10% heat-inactivated FBS. 1×10^6 tumor cells were injected in the flank of the mice 6 days prior to the chemotherapy.
Growth of tumors was monitored every 2 d by using calipers, and tumor volume was calculated by using the formula length×width×width×0.52 mm^3.

Regarding `CCNC(=O)CC[C@H](N)C(=O)O` [L-theanine], the “expansion of γδ T cells” value in data set [1] is reported as 15 fold.

Regarding `N=C(N)NCCC[C@H](N)C(=O)O` [arginine, L-arginine], the tumor size entry in data set [2] (combination with the chemotherapy treatment versus chemotherapy alone, FIG. 4) is given as “further reduced the tumor size”. Further, the “progression of the implanted tumor” value in data set [2] (supplemented diet compared to other groups) is on record as “delayed progression”. For the same compound, the “loss of CD3+ cells” value in data set [3] (after chemotherapy, supplemented diet) was “partially modulated”. For the same compound, the “immune cell population / concentration” value in data set [3] (second phase (tumor-induced toxicity)) is on record as “increase immune cell concentration”. Moreover, the “fall of erythrocytes after chemotherapy” value in data set [3] (supplemented diet, days 6 to 10 post-chemo, FIG. 3) is reported as “prevented the marked fall of erythrocytes”.

Take `NC(=O)NCCC[C@H](N)C(=O)O` [citrulline, L-citrulline]: the Global lymphocyte population result in data set [3] (supplemented diet) is listed as “less depressed following chemotherapy”.

On to `NC(=O)CC[C@H](N)C(=O)O` [glutamine], for which the Global lymphocyte population entry in data set [3] (supplemented diet) is “less depressed following chemotherapy”.

For the compound `O=C1[O][Pt]2([NH][C@@H]3CCCC[C@H]3[NH]2)[O]C1=O` [oxaliplatin], the “white blood cell counts” value in data set [4] is reported as “higher that the baseline counts”. Besides, the “tumor growth rate versus control (no chemotherapy)” value is “slower rate than the control” in data set [5] (treatment group oxa-10, FIG. 2, divergence at day 14) and “slower rate than the control” in data set [5] (treatment group oxa-12.5, FIG. 2, divergence at day 14).

Source of the values: patent US20110229521A1, “NUTRITIONAL SUPPORT OF THE IMMUNE SYSTEM DURING ANTI-CANCER TREATMENT” (priority 2008, published 2011).
